Where a name gives a salt, the structure may show the parent alone.
Each compound was assayed against T1, CXCR7 (Homo sapiens, UniProt P25106) (assay: PathHunter CHO-K1 CXCR7 b-arrestin recruitment assay (CXCR7 agonistic activity)). Conditions: PathHunter CHO-K1 CXCR7 b-arrestin cell line.
T1 construct: host or cells: CHO-K1 (PathHunter CHO-K1 CXCR7 b-arrestin cell line, stably transfected)
Type: cell-based
How it was run: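 Stable CHO-K1 line with C-terminally ProLink-tagged CXCR7 and β-arrestin 2–EA fusion; β-arrestin recruitment restores β-gal activity, read by chemiluminescence after 1 h RT detection. Cells seeded 24 h, starved in OPTIMEM 3–4 h, exposed to compounds 90 min at 37 °C in HBSS/HEPES/BSA. Geometric-mean EC50 from repeated measurements.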

T1 sequence (P25106 whole entry): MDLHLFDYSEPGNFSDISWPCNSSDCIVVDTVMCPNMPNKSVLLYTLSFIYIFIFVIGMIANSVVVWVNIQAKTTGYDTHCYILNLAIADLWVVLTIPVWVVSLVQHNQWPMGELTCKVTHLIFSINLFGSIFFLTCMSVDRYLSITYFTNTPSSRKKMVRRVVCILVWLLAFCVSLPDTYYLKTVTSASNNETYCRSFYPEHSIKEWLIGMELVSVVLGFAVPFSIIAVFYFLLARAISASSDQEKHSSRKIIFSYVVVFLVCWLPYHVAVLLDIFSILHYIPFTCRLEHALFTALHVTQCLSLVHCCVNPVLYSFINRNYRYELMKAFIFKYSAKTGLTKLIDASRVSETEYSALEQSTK
T1 sequence (P32121 whole entry partner): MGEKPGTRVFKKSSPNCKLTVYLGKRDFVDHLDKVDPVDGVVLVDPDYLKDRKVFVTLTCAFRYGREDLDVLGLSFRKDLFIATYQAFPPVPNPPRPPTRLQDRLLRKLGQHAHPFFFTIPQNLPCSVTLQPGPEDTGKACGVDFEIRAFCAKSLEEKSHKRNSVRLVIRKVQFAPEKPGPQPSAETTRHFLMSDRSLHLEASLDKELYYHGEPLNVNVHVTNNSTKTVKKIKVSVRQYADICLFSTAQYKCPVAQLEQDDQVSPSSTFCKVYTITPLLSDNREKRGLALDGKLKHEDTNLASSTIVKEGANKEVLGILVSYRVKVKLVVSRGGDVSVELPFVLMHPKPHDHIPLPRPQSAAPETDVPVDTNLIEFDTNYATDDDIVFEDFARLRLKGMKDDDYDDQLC

EC50 [nM]	SMILES
32	CN(C)CCN(Cc1ccccc1C(F)(F)F)C(=O)CNc1cccc2c1C(C)(C)CN(C(=O)OC(C)(C)C)C2 [Example 90, 5-({[(2-Dimethylamino-ethyl)-(2-trifluoromethyl-benzyl)-carbamoyl]-methyl}-amino)-4,4-dimethyl-3,4-dihydro-1H-isoquinoline-2-carboxylic acid tert-butyl ester]
1	CN(C)CCN(Cc1ccccc1C(F)(F)F)C(=O)CNc1cccc2c1C(C)(C)CN(CC1CC1)C2 [Example 91, 2-(2-Cyclopropylmethyl-4,4-dimethyl-1,2,3,4-tetrahydro-isoquinolin-5-ylamino)-N-(2-dimethylamino-ethyl)-N-(2-trifluoromethyl-benzyl)-acetamide]
413	CCN(Cc1ccccc1Cl)C(=O)/C=C/c1cccc2c1CCN(C(=O)OC(C)(C)C)C2 [Example 92, 5-{(E)-2-[(2-Chloro-benzyl)-ethyl-carbamoyl]-vinyl}-3,4-dihydro-1H-isoquinoline-2-carboxylic acid tert-butyl ester]
88	CN(C)CCN(Cc1ccccc1)C(=O)/C=C/c1cccc2c1CCN(C(=O)OC(C)(C)C)C2 [Example 93, 5-{(E)-2-[Benzyl-(2-dimethylamino-ethyl)-carbamoyl]-vinyl}-3,4-dihydro-1H-isoquinoline-2-carboxylic acid tert-butyl ester]
452	CCOC(=O)CN(Cc1ccccc1)C(=O)/C=C/c1cccc2c1CCN(C(=O)OC(C)(C)C)C2 [Example 94, 5-[(E)-2-(Benzyl-ethoxycarbonylmethyl-carbamoyl)-vinyl]-3,4-dihydro-1H-isoquinoline-2-carboxylic acid tert-butyl ester]
432	CC(C)(C)OC(=O)N1CCc2c(/C=C/C(=O)N(Cc3ccccc3)C3CCS(=O)(=O)C3)cccc2C1 (centres unmarked) [Example 95, 5-{(E)-2-[Benzyl-(1,1-dioxo-tetrahydro-1l6-thiophen-3-yl)-carbamoyl]-vinyl}-3,4-dihydro-1H-isoquinoline-2-carboxylic acid tert-butyl ester]
249	CN1CCC(N(Cc2ccccc2C(F)(F)F)C(=O)/C=C/c2cccc3c2CCN(C(=O)OC(C)(C)C)C3)CC1 [Example 96, 5-{(E)-2-[(1-Methyl-piperidin-4-yl)-(2-trifluoromethyl-benzyl)-carbamoyl]-vinyl}-3,4-dihydro-1H-isoquinoline-2-carboxylic acid tert-butyl ester]
365	C/C(=C\c1cccc2c1CCN(C(=O)OC(C)(C)C)C2)C(=O)N(CCN(C)C)Cc1ccccc1C(F)(F)F [Example 97, 5-{(E)-2-[(2-Dimethylamino-ethyl)-(2-trifluoromethyl-benzyl)-carbamoyl]-propenyl}-3,4-dihydro-1H-isoquinoline-2-carboxylic acid tert-butyl ester]
224	CN(C)CCN(Cc1ccccc1Cl)C(=O)CCc1cccc2c1CCN(C(=O)OC(C)(C)C)C2 [Example 98, 5-{2-[(2-Chloro-benzyl)-(2-dimethylamino-ethyl)-carbamoyl]-ethyl}-3,4-dihydro-1H-isoquinoline-2-carboxylic acid tert-butyl ester]
177	CN(C)CCN(Cc1ccccc1C(F)(F)F)C(=O)CCc1cccc2c1CCN(C(=O)OC(C)(C)C)C2 [Example 99, 5-{2-[(2-Dimethylamino-ethyl)-(2-trifluoromethyl-benzyl)-carbamoyl]-ethyl}-3,4-dihydro-1H-isoquinoline-2-carboxylic acid tert-butyl ester]
376	CN1CCC(N(Cc2ccccc2C(F)(F)F)C(=O)CCc2cccc3c2CCN(C(=O)OC(C)(C)C)C3)CC1 [Example 100, 5-{2-[(1-Methyl-piperidin-4-yl)-(2-trifluoromethyl-benzyl)-carbamoyl]-ethyl}-3,4-dihydro-1H-isoquinoline-2-carboxylic acid tert-butyl ester]
370	CCN1CCc2c(cccc2N(CC)CC(=O)N(CCN(C)C)Cc2ccccc2)C1 [Example 102, N-Benzyl-N-(2-dimethylamino-ethyl)-2-[ethyl-(2-ethyl-1,2,3,4-tetrahydro-isoquinolin-5-yl)-amino]-acetamide]
97	CCS(=O)(=O)N1CCc2c(cccc2NCC(=O)N(CCN(C)C)Cc2ccccc2C(F)(F)F)C1 [Example 103, N-(2-Dimethylamino-ethyl)-2-(2-ethanesulfonyl-1,2,3,4-tetrahydro-isoquinolin-5-ylamino)-N-(2-trifluoromethyl-benzyl)-acetamide]
9	CN1CCC(N(Cc2ccccc2C(F)(F)F)C(=O)CNc2cccc3c2CCN(CC2CC2)C3)CC1 [Example 105, 2-(2-Cyclopropylmethyl-1,2,3,4-tetrahydro-isoquinolin-5-ylamino)-N-(1-methyl-piperidin-4-yl)-N-(2-trifluoromethyl-benzyl)-acetamide]
52	CC(=O)N1CCc2c(cccc2NCC(=O)N(CCN(C)C)Cc2ccccc2)C1 [Example 108, 2-(2-Acetyl-1,2,3,4-tetrahydro-isoquinolin-5-ylamino)-N-benzyl-N-(2-dimethylamino-ethyl)-acetamide]
26	COC(=O)N1CCc2c(cccc2NCC(=O)N(CCN(C)C)Cc2ccccc2)C1 [Example 113, 5-({[Benzyl-(2-dimethylamino-ethyl)-carbamoyl]-methyl}-amino)-3,4-dihydro-1H-isoquinoline-2-carboxylic acid methyl ester]
55	O=C(/C=C/c1cccc2c1CCN(CC1CC1)C2)N(CCO)Cc1ccccc1 [Example 138, (E)-N-Benzyl-3-(2-cyclopropylmethyl-1,2,3,4-tetrahydro-isoquinolin-5-yl)-N-(2-hydroxy-ethyl)-acrylamide]
54	NC(=O)CCN(Cc1ccccc1)C(=O)/C=C/c1cccc2c1CCN(CC1CC1)C2 [Example 140, (E)-N-Benzyl-N-(2-carbamoyl-ethyl)-3-(2-cyclopropylmethyl-1,2,3,4-tetrahydro-isoquinolin-5-yl)-acrylamide dihydrochloride]
46	CCC(=O)N1CCc2c(CCC(=O)N(CCN(C)C)Cc3ccccc3)cccc2C1 [Example 162, N-Benzyl-N-(2-dimethylamino-ethyl)-3-(2-propionyl-1,2,3,4-tetrahydro-isoquinolin-5-yl)-propionamide]
339	CN1CCc2c(cccc2NCC(=O)N(Cc2ccccc2)CC2CC2)C1 [Example 175, N-Benzyl-N-cyclopropylmethyl-2-(2-methyl-1,2,3,4-tetrahydro-isoquinolin-5-ylamino)-acetamide]
3	CNCCN(Cc1ccccc1C(F)(F)F)C(=O)CNc1cccc2c1CCN(CC1CC1)C2 [Example 179, 2-(2-Cyclopropylmethyl-1,2,3,4-tetrahydro-isoquinolin-5-ylamino)-N-(2-methylamino-ethyl)-N-(2-trifluoromethyl-benzyl)-acetamide]
117	CN(C)CCN(Cc1ccccc1)C(=O)CNc1cccc2c1CN(C(=O)OC(C)(C)C)CC2 [Example 181, 8-({[Benzyl-(2-dimethylamino-ethyl)-carbamoyl]-methyl}-amino)-3,4-dihydro-1H-isoquinoline-2-carboxylic acid tert-butyl ester]
79	CCN1CCc2cccc(NCC(=O)N(CCN(C)C)Cc3ccccc3)c2C1 [Example 185, N-Benzyl-N-(2-dimethylamino-ethyl)-2-(2-ethyl-1,2,3,4-tetrahydro-isoquinolin-8-ylamino)-acetamide]
71	CCC(=O)N1CCc2cccc(NCC(=O)N(CCN(C)C)Cc3ccccc3)c2C1 [Example 188, N-Benzyl-N-(2-dimethylamino-ethyl)-2-(2-propionyl-1,2,3,4-tetrahydro-isoquinolin-8-ylamino)-acetamide]
110	COC(=O)N1CCc2cccc(NCC(=O)N(CCN(C)C)Cc3ccccc3)c2C1 [Example 190, 8-({[Benzyl-(2-dimethylamino-ethyl)-carbamoyl]-methyl}-amino)-3,4-dihydro-1H-isoquinoline-2-carboxylic acid methyl ester]
248	CN(C)CCN(Cc1ccccc1)C(=O)CNc1cccc2c1CN(C)C2 [Example 208, N-Benzyl-N-(2-dimethylamino-ethyl)-2-(2-methyl-2,3-dihydro-1H-isoindol-4-ylamino)-acetamide]

SMILES	EC50 [nM]
CN(C)CCN(Cc1ccccc1)C(=O)COc1cccc2c1CCN(C(=O)OC(C)(C)C)C2 [Example 101, 5-{[Benzyl-(2-dimethylamino-ethyl)-carbamoyl]-methoxy}-3,4-dihydro-1H-isoquinoline-2-carboxylic acid tert-butyl ester]	148
COC(=O)N1CCc2c(cccc2OCC(=O)N(CCN(C)C)Cc2ccccc2)C1 [Example 167, 5-{[Benzyl-(2-dimethylamino-ethyl)-carbamoyl]-methoxy}-3,4-dihydro-1H-isoquinoline-2-carboxylic acid methyl ester]	39
CN(C)CCN(Cc1ccccc1)C(=O)COc1cccc2c1CN(C)CC2 [Example 201, N-Benzyl-N-(2-dimethylamino-ethyl)-2-(2-methyl-1,2,3,4-tetrahydro-isoquinolin-8-yloxy)-acetamide]	27
COC(=O)N1CCc2cccc(OCC(=O)N(CCN(C)C)Cc3ccccc3)c2C1 [Example 204, 8-{[Benzyl-(2-dimethylamino-ethyl)-carbamoyl]-methoxy}-3,4-dihydro-1H-isoquinoline-2-carboxylic acid methyl ester]	40
CCC(=O)N1CCc2cccc(OCC(=O)N(CCN(C)C)Cc3ccccc3)c2C1 [Example 206, N-Benzyl-N-(2-dimethylamino-ethyl)-2-(2-propionyl-1,2,3,4-tetrahydro-isoquinolin-8-yloxy)-acetamide]	26
CN(C)CCN(Cc1ccccc1)C(=O)COc1cccc2c1CN(C(=O)c1ccccc1)CC2 [Example 207, 2-(2-Benzoyl-1,2,3,4-tetrahydro-isoquinolin-8-yloxy)-N-benzyl-N-(2-dimethylamino-ethyl)-acetamide]	5
